Test results: publication PMC10940605, “Design, synthesis and in vitro anticancer activity of some new lomefloxacin derivatives” (Scientific Reports, 2024)

How the values were obtained:
Assay in all cases: NCI-60 SRB screen
Type in all cases: cell-based
SK-OV-3 = conditions: Homo sapiens; SK-OV-3, 10^–5 Molar; read-out: Percent growth inhibition
IGROV1 = conditions: Homo sapiens, IGROV-1; IGROV1, 10^–5 Molar; read-out: Percent growth inhibition
Summary of the method: (§1)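 Compound added at 10^−5 M final, 48 h at 37 °C. Fixed with cold TCA, stained with 0.4% SRB, read at […].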

HCT-15 = conditions: Homo sapiens; HCT-15, 10^–5 Molar; read-out: Percent growth inhibition
Summary of the method: as §1

NCI/ADR-RES = conditions: Homo sapiens, 10^–5 Molar, read-out: Percent growth inhibition
Summary of the method: (§2)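 Percent growth inhibition at 10^−5 M, 48 h. Sulforhodamine B read-out at […] following cold TCA fixation; Tz plates fixed when compound was added.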

SN12C = conditions: Homo sapiens, 10^–5 Molar, read-out: Percent growth inhibition
Summary of the method: as §2

SF-268 = conditions: Homo sapiens; SF-268, 10^–5 Molar; read-out: Percent growth inhibition
Summary of the method: as §2

melanoma SK-MEL-5 = conditions: Homo sapiens; SK-MEL-5, 10^–5 Molar; read-out: Percent growth inhibition
Summary of the method: as §2

A549/ATCC = conditions: Homo sapiens, 10^–5 Molar, read-out: Percent growth inhibition
Summary of the method: as §1

HOP-62 = conditions: Homo sapiens; HOP-62, 10^–5 Molar; read-out: Percent growth inhibition
Summary of the method: as §1

NCI-H226 = conditions: Homo sapiens; NCI-H226, 10^–5 Molar; read-out: Percent growth inhibition
Summary of the method: as §2

OVCAR-8 = conditions: Homo sapiens; OVCAR-8, 10^–5 Molar; read-out: Percent growth inhibition
Summary of the method: as §1

CCRF-CEM = conditions: Homo sapiens, 10^–5 Molar, read-out: Percent growth inhibition
Summary of the method: as §1

SNB-75 = conditions: Homo sapiens; SNB-75, 10^–5 Molar; read-out: Percent growth inhibition
Summary of the method: as §1

RXF 393 = conditions: Homo sapiens, 48 h; RXF 393, 10^–5 Molar; read-out: Percent growth inhibition
Summary of the method: as §1

MDA-MB-231/ATCC = conditions: Homo sapiens, 10^–5 Molar, read-out: Percent growth inhibition
Summary of the method: as §2

SNB-19 = conditions: Homo sapiens; SNB-19, 10^–5 Molar; read-out: Percent growth inhibition
Summary of the method: as §2

K-562 = conditions: Homo sapiens, K562; K-562, 10^–5 Molar; read-out: Percent growth inhibition
Summary of the method: as §2

OVCAR-4 = conditions: Homo sapiens; OVCAR-4, 10^–5 Molar; read-out: Percent growth inhibition
Summary of the method: as §1

LOX IMVI = conditions: Homo sapiens, 10^–5 Molar, read-out: Percent growth inhibition
Summary of the method: as §2

leukemia SR = conditions: Homo sapiens; for inhibition at 10 µM: SR, 10^–5 Molar, read-out: Percent growth inhibition
Summary of the method: as §1

EKVX = conditions: Homo sapiens, 10^–5 Molar, read-out: Percent growth inhibition
Summary of the method: as §1

MDA-MB-468 = conditions: Homo sapiens; MDA-MB-468, 10^–5 Molar; read-out: Percent growth inhibition
Summary of the method: as §1

SK-MEL-28 = conditions: Homo sapiens; SK-MEL-28, 10^–5 Molar; read-out: Percent growth inhibition
Summary of the method: as §1

PC-3 = conditions: Homo sapiens; PC-3, 10^–5 Molar; read-out: Percent growth inhibition
Summary of the method: as §2

A498 = conditions: Homo sapiens; A498, 10^–5 Molar; read-out: Percent growth inhibition
Summary of the method: as §2

Compound | inhibition at 10 µM (SK-OV-3) [%] | inhibition at 10 µM (IGROV1) [%] | inhibition at 10 µM (HCT-15) [%] | inhibition at 10 µM (NCI/ADR-RES) [%] | inhibition at 10 µM (SN12C) [%] | inhibition at 10 µM (SF-268) [%] | inhibition at 10 µM (melanoma SK-MEL-5) [%] | inhibition at 10 µM (A549/ATCC) [%] | inhibition at 10 µM (HOP-62) [%] | inhibition at 10 µM (NCI-H226) [%] | inhibition at 10 µM (OVCAR-8) [%] | inhibition at 10 µM (CCRF-CEM) [%] | inhibition at 10 µM (SNB-75) [%] | inhibition at 10 µM (RXF 393) [%] | inhibition at 10 µM (MDA-MB-231/ATCC) [%] | inhibition at 10 µM (SNB-19) [%] | inhibition at 10 µM (K-562) [%] | inhibition at 10 µM (OVCAR-4) [%] | inhibition at 10 µM (LOX IMVI) [%] | inhibition at 10 µM (leukemia SR) [%] | also measured
CCn1cc(C(=O)NN=Cc2cccs2)c(=O)c2cc(F)c(N3CCNC(C)C3)c(F)c21 (centres unmarked) [Compound 3e, 1-Ethyl-6,8-difluoro-7-(3-methylpiperazin-1-yl)-4-oxo-N'-(thiophen-2-ylmethylene)-1,4-dihydroquinoline-3-carbohydrazide] | 9.74 | 33 | 75 | 32.1 | 30 | 20.9 | 30.2 | 56 | 27.6 | 24 | 56.2 | 32.8 | 11.5 | 83.8 | 59 | 27.1 | 139 | 23.8 | 184 | 104 | IC50 (leukemia SR; Leukemia SR cells, concentration used for cell cycle and apoptosis tests): 1900 nM; inhibition at 10 µM (EKVX): 65.9%; inhibition at 10 µM (MDA-MB-468): 44.9%; inhibition at 10 µM (SK-MEL-28): 10.1%; inhibition at 10 µM (PC-3): 23.7%
CCn1cc(C(=O)NN=Cc2cccnc2)c(=O)c2cc(F)c(N3CCNC(C)C3)c(F)c21 (centres unmarked) [Compound 3d, 1-Ethyl-6,8-difluoro-7-(3-methylpiperazin-1-yl)-4-oxo-N'-(pyridin-3-ylmethylene)-1,4-dihydroquinoline-3-carbohydrazide] | 16.2 | 71.7 | 1.76 | 2.29 | 69.4 | 63 | 34.8 | 14.4 | 40.6 | 58.2 | 70 | 54.3 | 41.1 | 40.7 | 64.2 | 69.5 | 71.9 | 51.9 | 82 | 66.4 | inhibition at 10 µM (A498): 40.3%; inhibition at 10 µM (EKVX): 37.2%; inhibition at 10 µM (MDA-MB-468): 69.3%; inhibition at 10 µM (SK-MEL-28): 23.1%; inhibition at 10 µM (PC-3): 49.1%
